Measurements from patent US12077503B2, “Substituted cyclic amides and their use as herbicides” (FMC CORPORATION, priority 2015, dated 2024).
Where two headings read alike, the source gives them in different places.

Columns and labels:
Experiment in all cases: Test A postemergence
Type in all cases: in vivo
[1] = tested on: wheat (Triticum aestivum); conditions: Triticum aestivum, post-emergence, 240 h, postemergence, read-out: Wheat plant response rating; for plant injury at 125 g/ha: 125 g ai/ha, visual injury on 0 to 100 scale (0 no effect, 100 complete control), approx. 10 d; for plant injury at 500 g/ha: 500 g ai/ha, 0 to 100 scale, 0 is no effect, 100 is complete control
Summary of the method: (§1)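 Seeds sprayed preemergence with a directed soil spray, or plants at 2 to 10 cm height and one- to two-leaf stage sprayed postemergence, with test chemicals in a non-phytotoxic solvent mixture containing surfactant, in loam soil–sand blend. Injury rated visually against untreated controls after about 10 d in greenhouse, 0 (no effect) to 100 (complete control).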

[2] = tested on: blackgrass (Alopecurus myosuroides); conditions: Alopecurus myosuroides, post-emergence, 240 h; for pest or weed control at 125 g/ha: 125 g ai/ha; for pest or weed control at 500 g/ha: 500 g ai/ha
Summary of the method: as §1

[3] = tested on: ryegrass, Italian (Italian ryegrass, Lolium multiflorum); conditions: Lolium multiflorum, post-emergence, 240 h, postemergence, read-out: Ryegrass, Italian plant response rating; for pest or weed control at 125 g/ha: 125 g ai/ha, visual injury on 0 to 100 scale (0 no effect, 100 complete control), approx. 10 d; for pest or weed control at 500 g/ha: 500 g ai/ha, 0 to 100 scale, 0 is no effect, 100 is complete control
Summary of the method: as §1

[4] = tested on: ragweed (common ragweed, Ambrosia elatior); conditions: Ambrosia artemisiifolia, post-emergence, 240 h, postemergence, read-out: Ragweed plant response rating; for pest or weed control at 125 g/ha: 125 g ai/ha, visual injury on 0 to 100 scale (0 no effect, 100 complete control), approx. 10 d; for pest or weed control at 500 g/ha: 500 g ai/ha, 0 to 100 scale, 0 is no effect, 100 is complete control
Summary of the method: as §1

[5] = tested on: giant foxtail (Setaria faberii); conditions: Setaria faberi, post-emergence, 240 h, postemergence; for pest or weed control at 125 g/ha: 125 g ai/ha, visual injury on 0 to 100 scale (0 no effect, 100 complete control); for pest or weed control at 500 g/ha: 500 g ai/ha
Summary of the method: as §1

[6] = postemergence, visual injury, 0 to 100 scale (0 no effect, 100 complete control), approx. 10 d, read-out: Plant response rating, Blackgrass
[7] = approx. 10 d, read-out: Foxtail, Giant plant response rating
[8] = visual injury, 0 to 100 scale (0 no effect, 100 complete control), approx. 10 d, read-out: Plant response rating, Foxtail, Giant
[9] = postemergence, visual injury on 0 to 100 scale (0 no effect, 100 complete control), approx. 10 d, read-out: Blackgrass plant response rating
[10] = postemergence, 0 to 100 scale, 0 is no effect, 100 is complete control, read-out: Blackgrass plant response rating
[11] = 0 to 100 scale, 0 is no effect, 100 is complete control, read-out: Foxtail, Giant plant response rating

Structure (SMILES) | plant injury at 125 g/ha [1] [%] | pest or weed control at 125 g/ha ([2]; Postemergence, visual injury after approximately 10 d, 0 to 100 scale where 0 is no effect and 100 is complete control, read-out: Plant response rating, Blackgrass) [%] | pest or weed control at 500 g/ha [2, 6] [%] | pest or weed control at 125 g/ha [3] [%] | pest or weed control at 125 g/ha [4] [%] | pest or weed control at 125 g/ha [5, 7] [%] | pest or weed control at 500 g/ha [5, 8] [%] | pest or weed control at 125 g/ha [2, 9] [%] | plant injury at 500 g/ha [1] [%] | pest or weed control at 500 g/ha [2, 10] [%] | pest or weed control at 500 g/ha [3] [%] | pest or weed control at 500 g/ha [4] [%] | pest or weed control at 500 g/ha [5, 11] [%]
Cc1cc([C@H]2CNC(=O)[C@@H]2C(=O)Nc2cccc(F)c2F)ccc1C(F)(F)F [Compound 1040] | 20 | 60 | 70 | 30 | 0 | 80 | 90 |  |  |  |  |  | 
Cc1cc([C@H]2CNC(=O)[C@@H]2C(=O)Nc2ccccc2S(C)(=O)=O)ccc1C(F)(F)F [Compound 1041] | 0 |  | 40 | 0 | 0 | 0 | 50 | 0 |  |  |  |  | 
CN1C[C@H](c2cc(F)cc(F)c2)[C@@H](C(=O)Nc2ncccc2Cl)C1=O [Compound 1097] | 0 |  |  | 0 | 0 | 0 |  | 0 | 0 | 0 | 0 | 0 | 0
Cc1cc([C@H]2CN(C)C(=O)[C@@H]2C(=O)Nc2ccccc2F)ccc1Br [Compound 1098] | 0 |  |  | 40 | 0 | 80 |  | 20 | 50 | 30 | 50 | 0 | 90
Cc1cc([C@H]2CN(C)C(=O)[C@@H]2C(=O)Nc2cccc(F)c2F)ccc1Br [Compound 1099] | 20 |  |  | 40 | 0 | 80 |  | 20 | 50 | 40 | 60 | 40 | 80
O=C1NC[C@H](c2cscn2)[C@H]1C(=O)Nc1cccc(F)c1F [Compound 1111] | 0 |  |  | 0 | 0 | 20 |  | 0 | 0 | 0 | 0 | 0 | 50
O=C1NC[C@H](c2cc(C(F)F)cs2)[C@H]1C(=O)Nc1ccccc1F [Compound 1116] | 0 |  |  | 0 | 0 | 0 |  | 0 | 20 | 30 | 20 | 0 | 0
